The results in this text go back to ChEMBL document CHEMBL1777790, “Discovery of novel HCV polymerase inhibitors using pharmacophore-based virtual screening” (Bioorg Med Chem Lett, 2011).

In one data set the test system is Hepatitis C virus. Put plainly: Antiviral activity against HCV in human HuH7 cells by replicon assay. The class given is functional, organism-based. To be noted: Huh-7; for Activity: Hepacivirus hominis.
Data set [1] in a line: Cytotoxicity against human HuH7 cells. It is filed as cell-based, Huh-7.
Data set [2] concerns Hepatitis C virus subtype 1b. As to the kind of experiment: Inhibition of HCV genotype 1b NS5B RNA dependent RNA polymerase activity at 20 uM.

The structures appear in SMILES notation. Activity calls are given as the source filed them. No cut-off for these calls is given here.

For the compound `C=C(C)C(=O)Nc1ccc(NC(=O)C(=C)C)c(OC(F)(F)C(F)F)c1`, the outcome in the data set with Hepatitis C virus was inactive. Also, half-maximal cytotoxicity in data set [1] (CC50) was put at 29 µM. The same compound registered an inhibition in data set [2] of 48%.
`Cc1ccc(C(=O)Nc2ccc(F)cc2)cc1S(=O)(=O)N1CCOCC1`: the 50% cytotoxic concentration (CC50) in data set [1] amounted to 16.5 µM.
In data set [1], `CS(=O)(=O)N(Cc1ccccc1)c1ccc(C(=O)NCc2ccco2)cc1` showed a CC50 of 32.7 µM. In data set [2], this compound came in with an inhibition of 8%.
As to `O=C(Nc1ccc2[nH]c(-c3ccccn3)nc2c1)c1ccco1`, the result with Hepatitis C virus was inactive. This compound displayed a CC50 in data set [1] of 20 µM. This compound displayed an inhibition in data set [2] of 42.4%.
For the compound `Cn1ncc(Cl)c1C(=O)Nc1ccc2[nH]c(-c3ccccc3)nc2c1`, in the data set with Hepatitis C virus, the outcome was inactive. This compound also displayed a CC50 in data set [1] of under 5 µM. Moreover, in data set [2], the inhibition was determined as 14%.
In data set [1], `O=C(O)CNC(=O)/C(=C\c1cccc([N+](=O)[O-])c1)NC(=O)c1ccc(Br)o1` displayed a half-maximal cytotoxic concentration (CC50) of over 50 µM.
Regarding `Nc1ccc(C(=O)Nc2ccc3[nH]c(-c4ccccc4)nc3c2)cc1`, in the data set with Hepatitis C virus, the result was inactive. In data set [1], the CC50 was under 5 µM. Besides, in data set [2], the inhibition came out at 19.7%.
For `CC(=O)Nc1ccc2[nH]c(-c3cccs3)nc2c1`, in that order: “inactive”, 20 µM and 18.5%.
Take `COc1cc(/C=N/Nc2nc3ccccc3s2)ccc1OC(=O)c1ccco1`: in data set [1], the midpoint of cytotoxicity, the CC50, lay at 30.5 µM.
Still for that read-out and setting: then `O=C(Nc1ccc(NC(=O)c2cccs2)cc1Cl)c1ccco1`, with 18 µM.
Turning to `Cn1cc([N+](=O)[O-])c(C(=O)Nc2ccc3[nH]c(-c4ccccc4)nc3c2)n1`, in the data set with Hepatitis C virus, the EC50 was determined as 8.3 µM. Further, the CC50 in data set [1] was 17.3 µM. The inhibition in data set [2] was 37.7%.
In turn, `C=CCNS(=O)(=O)c1ccc(OC)c(OC)c1` had a CC50 in data set [1] of 48.6 µM.
On the same count and under the same terms, then `C=CCNC(=O)c1ccc(CN(c2cccc(Cl)c2)S(C)(=O)=O)cc1`, with 33 µM; and `CCOc1cc(NC(=O)CCl)c(OCC)cc1NC(C)=O`, with over 50 µM.
For `CCC(=O)Nc1ccc(SC#N)c(C(F)(F)F)c1`, it took 45.8 µM to reach half-maximal cytotoxicity in data set [1] (CC50). The compound further displayed an inhibition in data set [2] of 9%.
Compound `Cn1ncc([N+](=O)[O-])c1C(=O)Nc1ccc2[nH]c(-c3ccccc3)nc2c1` showed an EC50 in the data set on Hepatitis C virus of 2.16 µM. Further, the CC50 in data set [1] is 34.5 µM. The inhibition in data set [2] was 54%.
For `O=C(Nc1ccc2[nH]c(-c3ccccc3)nc2c1)c1ccccc1`, the result in the data set on Hepatitis C virus was inactive. Further, the CC50 in data set [1] was 20 µM. The same compound registered an inhibition in data set [2] of 20%.
`O=C1NN(c2ccc(Cl)c(Cl)c2)C(=O)/C1=C/c1ccc(N2CCOCC2)c([N+](=O)[O-])c1`: the CC50 in data set [1] was found to be 27 µM. Besides, the inhibition in data set [2] was determined as 13%.
The compound `CC(=O)Nc1ccc2nc(-c3ccccn3)[nH]c2c1` showed a CC50 in data set [1] of 24.8 µM.
Same read-out and setting: then `O=C(COc1ccccc1Cl)Nc1ccc(Oc2ccc(F)cc2)c(C(F)(F)F)c1`, with 14.2 µM; and `O=C(Nc1cccc(Br)c1)c1ccc(Br)c(S(=O)(=O)Nc2ccccn2)c1`, with over 50 µM; and `CCOc1cc(NC(=O)c2ccco2)c(OCC)cc1NC(=O)CC`, with 36.1 µM.
On to `O=C(Nc1ccc2[nH]c(-c3ccc(Cl)cc3)nc2c1)C1C2CC3CC(C2)CC1C3` (centres undefined), for which, in the data set on Hepatitis C virus, the outcome was inactive. In data set [1], this compound yielded a CC50 of under 5 µM. For the same compound, the inhibition result in data set [2] was “inactive”.
On to `O=C(Nc1ccc2[nH]c(-c3cccnc3)nc2c1)c1ccco1`, for which, in the data set with Hepatitis C virus, the outcome was inactive. The compound also had a CC50 in data set [1] of 20 µM.
In turn, `COC(=O)c1ccc(C(=O)OC)c(NS(C)(=O)=O)c1` displayed a CC50 in data set [1] of 43.5 µM.
Turning to `COC(=O)c1ccc(C(=O)Nc2ccc3[nH]c(-c4ccccc4)nc3c2)cc1`, the result in the data set with Hepatitis C virus was inactive. In data set [1], the CC50 is under 5 µM. Also, the inhibition in data set [2] was 90%.
As for `O=C(Nc1ccc(F)cc1)c1ccc(Cl)c(S(=O)(=O)N2CCOCC2)c1`, the midpoint of cytotoxicity in data set [1], the CC50, lay at 15.6 µM. This counts as double-digit micromolar.
For `CC(=O)Nc1ccc2[nH]c(-c3ccco3)nc2c1`, the outcome in the data set with Hepatitis C virus was inactive. Further, it took 25 µM to reach half-maximal cytotoxicity in data set [1] (CC50). The inhibition in data set [2] was found to be 42%.
Regarding `O=C(Nc1ccc2[nH]c(-c3ccccc3)nc2c1)c1ccco1`, in the data set with Hepatitis C virus, the outcome was inactive. In data set [1], this compound yielded a CC50 of under 5 µM. Besides, the inhibition entry in data set [2] was “inactive”.
In data set [1], `CCCS(=O)(=O)c1ccc2[nH]c(NC(=O)OC)nc2c1` yielded a CC50 of under 5 µM.
`CC(=O)Nc1ccc2[nH]c(-c3ccccn3)nc2c1`: the outcome in the data set on Hepatitis C virus was inactive.
